Experimental data taken from paper PMC12615753, “Glutathione as a taste modulator: molecular mechanisms of interaction with umami and sweet taste receptors” (Food Chemistry: Molecular Sciences, 2025).

Target: T1, hTAS1R1 L223A/rTAS1R3 (Homo sapiens, UniProt Q7RTX1, L223A)
T1 construct: UniProtKB number Q7RTX1–1); expressed in transfected cells; host or cells: HEK293T/17 (ATCC CRL-11268)
T1 sequence (Q7RTX1 21-841 L223A): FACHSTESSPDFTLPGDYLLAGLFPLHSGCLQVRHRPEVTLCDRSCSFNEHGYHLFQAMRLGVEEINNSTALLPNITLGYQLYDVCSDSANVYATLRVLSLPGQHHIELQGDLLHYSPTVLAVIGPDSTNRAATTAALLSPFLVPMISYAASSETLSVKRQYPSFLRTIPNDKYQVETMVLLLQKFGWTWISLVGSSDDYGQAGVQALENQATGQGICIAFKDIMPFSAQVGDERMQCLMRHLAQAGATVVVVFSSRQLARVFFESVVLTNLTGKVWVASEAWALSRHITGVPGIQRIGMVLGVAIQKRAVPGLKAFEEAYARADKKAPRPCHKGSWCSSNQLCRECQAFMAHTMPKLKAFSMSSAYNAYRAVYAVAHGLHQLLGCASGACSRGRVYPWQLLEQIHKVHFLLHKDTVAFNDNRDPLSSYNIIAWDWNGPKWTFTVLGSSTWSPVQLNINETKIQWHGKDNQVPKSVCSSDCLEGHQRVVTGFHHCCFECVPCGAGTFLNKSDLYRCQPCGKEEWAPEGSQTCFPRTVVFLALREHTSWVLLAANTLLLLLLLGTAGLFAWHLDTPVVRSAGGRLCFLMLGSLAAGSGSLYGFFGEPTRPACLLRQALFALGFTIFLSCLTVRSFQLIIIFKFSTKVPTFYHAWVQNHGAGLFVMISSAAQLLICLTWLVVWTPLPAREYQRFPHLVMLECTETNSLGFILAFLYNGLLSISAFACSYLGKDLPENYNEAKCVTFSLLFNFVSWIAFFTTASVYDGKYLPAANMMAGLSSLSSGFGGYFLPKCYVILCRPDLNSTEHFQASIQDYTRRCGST
T1 sequence (Q923K1 21-858 partner): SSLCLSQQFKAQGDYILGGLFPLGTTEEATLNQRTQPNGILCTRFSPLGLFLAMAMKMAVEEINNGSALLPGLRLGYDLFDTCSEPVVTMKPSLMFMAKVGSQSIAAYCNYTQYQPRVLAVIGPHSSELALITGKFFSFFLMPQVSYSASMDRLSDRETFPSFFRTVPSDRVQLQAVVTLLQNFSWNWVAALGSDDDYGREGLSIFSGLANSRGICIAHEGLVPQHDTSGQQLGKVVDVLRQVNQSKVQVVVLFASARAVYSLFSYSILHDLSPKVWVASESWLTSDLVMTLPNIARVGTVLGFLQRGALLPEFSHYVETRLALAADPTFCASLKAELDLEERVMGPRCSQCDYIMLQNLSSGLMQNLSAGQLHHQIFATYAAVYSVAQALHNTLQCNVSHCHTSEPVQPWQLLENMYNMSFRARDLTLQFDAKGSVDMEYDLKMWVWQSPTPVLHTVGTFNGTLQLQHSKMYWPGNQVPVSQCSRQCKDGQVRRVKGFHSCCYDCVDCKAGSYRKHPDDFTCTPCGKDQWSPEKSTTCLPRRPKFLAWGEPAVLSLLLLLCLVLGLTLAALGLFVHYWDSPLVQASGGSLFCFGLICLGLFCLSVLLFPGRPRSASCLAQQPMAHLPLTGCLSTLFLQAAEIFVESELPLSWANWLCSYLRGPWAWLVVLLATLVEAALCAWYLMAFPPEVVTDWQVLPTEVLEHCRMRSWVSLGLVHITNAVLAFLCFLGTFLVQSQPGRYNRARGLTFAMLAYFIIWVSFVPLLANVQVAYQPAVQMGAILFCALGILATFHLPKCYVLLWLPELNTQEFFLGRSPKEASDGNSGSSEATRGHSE
Experiment: Calcium assay, hTAS1R1 mutant co-expressed with rTAS1R3
Type: cell-based, rat

Compound: N[C@@H](CCC(=O)N[C@@H](CS)C(=O)NCC(=O)O)C(=O)O [GSH, γ-L-glutamyl-L-cysteinyl-glycine]
- EC50: 2.32 ± 0.308 mM
- effect of the added compound (1 mM) on the response to L-Glu (L223A): synergy was observed
- response to the agonist alone, vs WT (L223A): significantly increased the initial amplitude
- Max ∆F/F0 (L223A, GSH): 1.71 ± 0.09
- R1 = mutant EC50/WT EC50 (L223A, GSH): 0.9

Compound: N[C@@H](CCC(=O)O)C(=O)O [L-Glu, L-glutamic acid, reference compound]
- response to the agonist alone, vs WT (L223A): increased the amplitude
